Reference: patent US20130005811A1, “ANTIMICROBIAL TREATMENT FOR SEEDS AND SPROUTS” (priority 2010, published 2013)
Marks after values point to notes of the source that are not given here.

Experiments:
[1] = system: E. coli O157:H7; test: Inactivation of E. coli O157:H7 on alfalfa seeds inoculated with 10^8 CFU/g; type: cell-based, Escherichia coli O157:H7
Experimental: Five isolates of Escherichia coli O157:H7, including strain 932 (human isolate), E009 (beef isolate), E0018 (cattle isolate), E0122 (cattle isolate), E0139 (deer jerky isolate); and five isolates of Salmonella typhimurium DT104, including strain H2662 (cattle isolate), 11942A (cattle isolate), 13068A (cattle isolate), 152N17-1 (dairy isolate) and H3279 (human isolate) were used. Nalidixic acid-resistant (50 μg/ml) E. coli O157:H7 were used to facilitate enumeration. Each E. coli O157:H7 and Salmonella strain was grown in tryptic soy broth (TSB, Beckon Dickinson, Sparks, Md.) at 37° C. for 18 hr. Approximately equal cell numbers of each of the five strains were combined and used as a 5-strain mixture with cell numbers being adjusted by spectrophotometric (Spectronic Instruments, Rochester, N.Y.) determination as described in Zhao et al., (2009) J. Food Prot. 72: 928-936, incorporated herein by reference in its entirety. Bacterial cell numbers were confirmed by plating 0.1 ml of serial dilutions (1:10) in 0.1% peptone on tryptic soy agar (TSA, Beckon Dickinson) and Sorbitol MacConkey agar (SMA, Oxoid, Hampshire, UK) for E. coli O157:H7, and TSA and XLD agar (Beckon Dickinson) for Salmonella and incubating all plates at 37° C. for 24 hr, after which colonies were counted.
Levulinic acid (0.5%) and 0.05% sodium dodecyl sulfate (SDS) obtained from Sigma-Aldrich (St. Louis, Mo.) were tested in combination at 21±2° C. for their antimicrobial activity to E. coli O157:H7 and S. typhimurium on alfalfa seeds as a wash treatment. Calcium hypochlorite (Arch Chemicals, Smyrna, Ga.) at 20,000 μg/ml (ppm) was used as the positive control, and deionized water was used as the negative control.
Before each trial, 25 ml of sterile tap water and 25 g of alfalfa seeds were added to a WHIRL-PAK® bag (Nasco, Fort Atkinson, Wis.) and pummeled in a stomacher blender at 150 rpm for 1 min. Duplicate 0.1 ml portions of the contents were plated on SMA, XLD, and TSA plates to detect E. coli O157:H7 and Salmonella, and enumerate aerobic bacteria counts according to the protocols described below. Only E. coli O157:H7-negative and Salmonella-negative alfalfa seeds were used. Dry seeds (50 g) were individually placed in a sterilized glass beaker (1 L) and 5 ml of a mixture of E. coli O157:H7 or S. typhimurium DT 104 (high inocula at 10^8-10^9 CFU/ml and low inocula at 10^3-10^4 CFU/ml) was inoculated on the surface of the seeds in each glass beaker under a laminar flow hood. A sterile plastic spoon was used to mix for 2 min the seeds with bacterial suspension. The glass beakers were held in a laminar flow hood for 1 hr, 4 hr, 24 hr, 48 hr, and 72 hr with intermittent mixing by plastic spoon before use for chemical treatment.
Inactivation of E. coli O157:H7 and Salmonella on Alfalfa Seeds: Inoculated, dried alfalfa seeds (50 g samples) were placed in a 1000 ml glass beaker containing 200 ml of treatment solution and agitated by a magnetic stir bar at 150 ppm at 21° C. for 0, 1, 2, 5, 10, 20, 30, and 60 min. Following treatment, 25 g of seeds was placed in a stomacher bag containing 25 ml 0.1M phosphate buffer, pH 7.2 (PBS) for levulinic acid plus SDS-treated seeds or neutralizing buffer (50×) for calcium hypochlorite-treated seeds and pummeled for 1 min. at 150 rpm in a stomacher blender (Seward, Ltd., Worthing, England). The suspension was serially (1:10) diluted in 0.1% peptone water and 0.1 ml of each dilution was surface-plated in duplicate onto TSA and Sorbitol MacConkey agar containing 50 μg nalidixic acid/ml (TSA-NA and SMA-NA) for E. coli O157:H7, and on TSA and XLD containing ampicillin (32 μg/ml), tetracycline (16 μg/ml) and streptomycin (64 μg/ml) (TSA+ and XLD+) for S. typhimurium DT 104. All plates were incubated at 37° C. for 48 hr.

[2] = system: E. coli O157:H7; test: E. coli O157:H7 on alfalfa seeds with an initial inoculum of 10^4 CFU/g; type: cell-based, Escherichia coli O157:H7

[Ca+2].[O-]Cl.[O-]Cl [20,000 ppm, Ca(OCl)2, pH 11.4, Calcium hypochlorite]
E. coli O157:H7 counts on seeds ([1]; dried for 4 hr, treated for 0 min (actual time 0 delayed by 20 to 30 seconds)): +^b (below the minimum detection level by direct plating (<0.7 log CFU/ml), but positive by enrichment culture)
E. coli O157:H7 counts on seeds ([1]; dried for 4 hr, treated for 1 min): + (below the minimum detection level by direct plating (<0.7 log CFU/ml), but positive by enrichment culture)
E. coli O157:H7 counts on seeds ([1]; dried for 4 hr, treated for 2 min): −^c
E. coli O157:H7 counts on seeds ([1]; dried for 4 hr, treated for 5 min): + (below the minimum detection level by direct plating (<0.7 log CFU/ml), but positive by enrichment culture)
E. coli O157:H7 counts on seeds ([1]; dried for 4 hr, treated for 10 min): 1.7 CFU/g
E. coli O157:H7 counts on seeds ([1]; dried for 4 hr, treated for 20 min): 2.0 CFU/g
E. coli O157:H7 counts on seeds ([1]; dried for 4 hr, treated for 30 min): 1.7 CFU/g
E. coli O157:H7 counts on seeds ([1]; dried for 4 hr, treated for 60 min): + (below the minimum detection level by direct plating (<0.7 log CFU/ml), but positive by enrichment culture)
E. coli O157:H7 counts on seeds ([1]; dried for 24 hr, treated for 0 min): + (below the minimum detection level by direct plating (<0.7 log CFU/ml), but positive by enrichment culture)
E. coli O157:H7 counts on seeds ([1]; dried for 24 hr, treated for 1 min): −
E. coli O157:H7 counts on seeds ([1]; dried for 24 hr, treated for 2 min): −
E. coli O157:H7 counts on seeds ([1]; dried for 24 hr, treated for 5 min): −
E. coli O157:H7 counts on seeds ([1]; dried for 24 hr, treated for 10 min): + (below the minimum detection level by direct plating (<0.7 log CFU/ml), but positive by enrichment culture)
E. coli O157:H7 counts on seeds ([1]; dried for 24 hr, treated for 20 min): −
E. coli O157:H7 counts on seeds ([1]; dried for 24 hr, treated for 30 min): −
E. coli O157:H7 counts on seeds ([1]; dried for 24 hr, treated for 60 min): + (below the minimum detection level by direct plating (<0.7 log CFU/ml), but positive by enrichment culture)
E. coli O157:H7 counts on seeds ([1]; dried for 48 hr, treated for 0 min): + (below the minimum detection level by direct plating (<0.7 log CFU/ml), but positive by enrichment culture)
E. coli O157:H7 counts on seeds ([1]; dried for 48 hr, treated for 1 min): −
E. coli O157:H7 counts on seeds ([1]; dried for 48 hr, treated for 2 min): + (below the minimum detection level by direct plating (<0.7 log CFU/ml), but positive by enrichment culture)
E. coli O157:H7 counts on seeds ([1]; dried for 48 hr, treated for 5 min): −
E. coli O157:H7 counts on seeds ([1]; dried for 48 hr, treated for 10 min): −
E. coli O157:H7 counts on seeds ([1]; dried for 48 hr, treated for 20 min): −
E. coli O157:H7 counts on seeds ([1]; dried for 48 hr, treated for 30 min): −
E. coli O157:H7 counts on seeds ([1]; dried for 48 hr, treated for 60 min): −
E. coli O157:H7 counts on seeds ([1]; dried for 72 hr, treated for 0 min): + (below the minimum detection level by direct plating (<0.7 log CFU/ml), but positive by enrichment culture)
E. coli O157:H7 counts on seeds ([1]; dried for 72 hr, treated for 1 min): + (below the minimum detection level by direct plating (<0.7 log CFU/ml), but positive by enrichment culture)
E. coli O157:H7 counts on seeds ([1]; dried for 72 hr, treated for 2 min): + (below the minimum detection level by direct plating (<0.7 log CFU/ml), but positive by enrichment culture)
E. coli O157:H7 counts on seeds ([1]; dried for 72 hr, treated for 5 min): −
E. coli O157:H7 counts on seeds ([1]; dried for 72 hr, treated for 10 min): + (below the minimum detection level by direct plating (<0.7 log CFU/ml), but positive by enrichment culture)
E. coli O157:H7 counts on seeds ([1]; dried for 72 hr, treated for 20 min): + (below the minimum detection level by direct plating (<0.7 log CFU/ml), but positive by enrichment culture)
E. coli O157:H7 counts on seeds ([1]; dried for 72 hr, treated for 30 min): −
E. coli O157:H7 counts on seeds ([1]; dried for 72 hr, treated for 60 min): −
Reduction of E. coli O157:H7 population ([1]; seeds dried for 4 hr, treated for up to 60 min): greater than 6 log CFU/g
E. coli O157:H7 detection after treatment ([1]; seeds dried for 24 hr, treated for 5 min): only detectable on seeds by selective enrichment culture
E. coli O157:H7 on treated seeds by direct plating method ([2]; 10 min in glass beaker then pummeled 10 min in stomacher bag): negative
E. coli O157:H7 count in sample No. 1-10 (seeds) ([2]; dried at 21° C. for 2 hr, treated for 20 min (10 min in beaker and 10 min in a stomacher bag) at 21° C.): −
